From patent publication US20160375057A1, “THERAPEUTIC COMPOSITIONS AND METHODS INVOLVING CELL-PERMEABLE IRON” (priority 2015, published 2016) come the findings set out here.

Test [1] deals with MA148 ovarian cancer cells. The experiment in a line: Synergy of doxorubicin and FAC, CCK-8 viability, Compusyn CI/DRI (Example 5, FIG. 5, Tables 3-4). The test is classed as cell-based, Human. Here is the method:
FIG. 5. […] (Chou et al., 2006, Pharmacol Rev 58:621-628).
Subsequently, they were treated with different concentrations of Doxorubicin in the presence or absence of FAC 200 uM. […] Five different combinations of FAC and Doxorubicin were used in this study. […] Values below the dotted line indicate synergy.

For test [2], the system named is A2780 ovarian cancer cells. In words: Synergy of carboplatin and FAC, CCK-8 IC50 isobologram (Example 3, FIG. 3). The settings on record: read-out: IC50 (50% cell viability); agent alone, 48-hour treatment, CCK-8, A2780.
Method: In these experiments, varying concentrations of the two reagents are added to tumor cells in an array format. Cytotoxicity was determined by CCK8 assay after 24 hours.
A2780 ovarian cancer cells were seeded into 96-well plates. […] Cell viability was determined by CCK-8 kit after 48-hour treatment with the drugs. […] IC50 values are shown as individual data points.
Test [3] concerns MDA-MB-231-luc triple negative breast cancer cell line. The settings on record: 100 μM FAC alone without radiation, five days. Here is the method: FIG. 12. […] Triple negative breast cancer cell line, MDA-MB-231-luc, was exposed to different doses of ionizing radiation (X-Ray) in the presence and absence of 100 μM FAC. Sets of cultures seeded at the same cell density were kept as a control for radiation-induced cell death.
500,000 highly metastatic human breast cancer cells (MDA-MB-231-luc, Caliper Life Sciences, PerkinElmer Inc., Hopkinton, Mass.) were seeded into six-well plates in RPMI-1640 medium (3.0 ml) supplemented with 10% fetal bovine serum and antibiotics. After four hours to allow cell attachment, sets of cultures were treated with 100 μM FAC. Equal volume of complete medium was added to control cultures. One of the plates was kept aside without any radiation. Other sets of cultures were exposed to ionizing radiation (X-ray) of varying doses. After radiation, cells were cultures for five days. Live cells were stained with Hoechest 33342 dye and photographed under UV light.

The subject of test [4] is MA148 ovarian cancer cells.
Method: CI, combination index. CI<1.0 indicates synergy. Compusyn program (ComboSyn, Inc., Paramus, N.J.) was used to calculate CI and generate isobologram.
In these experiments, varying concentrations of the two reagents are added to tumor cells in an array format. Cytotoxicity was determined by CCK8 assay after 24 hours. […] An antagonistic effect (competition) would result in hyperbolic (bell-shaped) curve above the dotted line (additive effect).
Cells were allowed to attach for 24 hours after which they were pretreated with FAC 200 μM for 24 hours. […] After 24 hours, CCK-8 (10 μl) was added to each well and one hour later, absorbance at 450 nm was measured. Viability was calculated as percentage of the cells grown in complete medium (FIG. 4). […] Isobologram was generated using Compusyn program (ComboSyn, Inc., Paramus, N.J.). Dotted line is the predicted additive effect between two compounds. Values below the dotted line indicate synergy.
The test system of test [5] is human umbilical vein endothelial cells (HUVEC). The settings on record: 100 ng/ml VEGF-A. The method, then: Human umbilical vein endothelial cells (HUVECs; Neuromics, Edina, Minn.) and HUVECs immortalized with h-TERT (ATCC CRL-4053, ATCC, Manassas, Va.) were cultured in endothelial cell growth media EGM-2 (Lonza, Basel, Switzerland). Lewis Lung Carcinoma (LLC) cells (ATCC CRL-1642, ATCC, Manassas, Va.) were grown in RPMI 1640 medium supplemented with 10% FBS, 1% glutamine, 1% penicillin-streptomycin and 1% sodium pyruvate. Female C57BL/6 wild-type (WT) mice were used as recipients (bred at the University of Minnesota specific pathogen free environment animal facility). All animals were sex and aged matched (6-8 weeks). All experimental protocols were approved by the University of Minnesota Institutional Animal Care and Use Committee. VEGF-A165 was purchased from R & D Systems (Minneapolis, Minn.). GELTREX Low-growth factor basement membrane matrix (Thermo Fisher Scientific, Inc., Waltham Mass.) was used for in vitro tube formation assay.
HUVEC were plated in 0.2% gelatin coated 96-well plates and allowed to attach for 24 hours. Subsequently they were starved in EBM-2 with 2% serum overnight. […] Cell viability was determined by CCK-8 assay (Dojindo Molecular Technologies, Inc., Rockville, Md.). VEGF-A induced effect was calculated by subtracting negative control values from all experimental groups. Proliferation was then calculated as percentage of the positive control.

Test [6] deals with Burkitt's B-lymphoma cells. The settings on record: 14 days, 2 cells/well-50 cells/well. Here is the method: FIG. 13. […] Burkitt's B-lymphoma cells were treated with FAC at different concentrations. Treated cells grown for 14 days at different cell density (2 cells/well-50 cells/well).
The next test concerns HUVECs. The settings on record: FAC 200 μM for 24 hours, complete medium, eight hours recording.
The test system of test [7] is Lewis Lung Carcinoma (LLC) MATRIGEL plugs, tumor blood vessels (CD31). Here is the method:
FIG. 11. […] Tumor cells were injected into groups of mice subcutaneously in […] plugs. […] Histograms show mean levels of blood vessel length and branch points.
In another aspect, this disclosure describes methods of inhibiting angiogenesis in a subject. Generally, the methods involve co-administering cell-permeable iron and an anti-angiogenic chemotherapeutic agent. […] (FIG. 7).
One million LLC cells (in PBS) were mixed with […] (Corning, Inc., Corning, N.Y.) in a 3:1 ratio and injected subcutaneously into the dorsal flanks (bilateral sites) of 6-8 week old female C57BL/6 wild-type mice. Experimental […] plugs contained 200 μM FAC. Four days later, mice were treated with either saline (negative control) or 20 mg/kg FAC (in PBS) on alternate days for two weeks. After two weeks, mice were sacrificed, tumor plugs removed and photographed, a part of the […] plugs was snap-frozen, and another part of the […] plugs was fixed in 10% neutral formalin. Frozen tumor plugs (n=5 for saline and n=7 for FAC) were sectioned (15 μm), fixed with acetone at −20° C. for 10 minutes, rehydrated, and blocked in 1% BSA. Slides were then stained with PE-conjugated anti-mouse CD31 (1:100) overnight at 4° C., washed three times with PBS, stained with FITC-conjugated anti-alpha-SMA (1:500) for one hour at room temperature and counterstained with DAPI. Two sections per tumor plug were stained. Random areas (5-20) were imaged at 10× magnification using a Nikon AZ 100M Fluorescence Macro scope and at 20× magnification using a Leica DM5500 B microscope. CD31 vessel length and branching points (nodes) were quantified by morphometric analyses of fluorescent digital images using Reindeer Games plug-in functions for Adobe Photoshop, as previously described (Wild et al., 2000, Microvac Res 59(3):368-376). CD31 positive vessels co-staining with alpha- SMA were quantified similarly to quantitate mature vessels. Data in FIG. 11 show representative images of tumor sections stained with rat anti-mouse CD31-phycoerythrin conjugate.

A further test deals with Burkitt's lymphoma cells. The experiment in a line: Lymphoma cell growth in vitro, FAC versus FC (FIG. 14). Format: cell-based. The method, then: FIG. 14. […]. Burkitt's lymphoma cells were treated with either ferric ammonium citrate (FAC) or ferric citrate (FC). […]
Setting [8] is: 20 mg/kg FAC on alternate days for two weeks.

Read-outs that look alike come from different tables or passages of the source.

Method for HUVECs: HUVECs were plated in 60 mm plates and allowed to grow and attach for 24 hours. Subsequently, one plate was treated with FAC 200 μM for 24 hours. Control and treated cells were trypsinized and 50,000 live cells were plated in 8 well (8W10E) electric cell substrate impedance sensing plate (ECIS, Applied BioPhysics, Inc., Troy, N.Y.). Cell attachment and spreading was confirmed by measuring electrical impedance. After reaching stable values of impedance in ohms, a clear wound of 250 micrometer was generated by applying elevated electrical pulse to the defined electrode. Wounded area is clear of cells and confirmed by a decrease in impedance. Cell movement into the wounded areas was recorded for eight hours at 15 minute intervals. Cell migration into the wounded area increases impedance and was continually recorded over a period of eight hours (FIG. 10). Error bars represent standard deviation (SD).

In the case of `COc1cccc2c1C(=O)c1c(O)c3c(c(O)c1C2=O)C[C@@](O)(C(=O)CO)C[C@@H]3O[C@H]1C[C@H](N)[C@H](O)[C@H](C)O1` [DOX, Doxorubicin, reference compound], the “Dose DOX (DOX alone for this Fa)” value in [1] (Fa 0.88386) turned out to be 47050.0; in [1] (Fa 0.95196), 178095.
`N.N.O=C([O-])C1(C(=O)[O-])CCC1.[Pt+2]` [carboplatin, reference compound]: the IC50 in test [2] came out at 150 µM.
Turning to ferric ammonium citrate [FAC], in test [3], the cell viability result is “significant decrease in cell viability”. Moreover, the “Dose FAC (FAC alone for this Fa)” value came to 121.297 in [4] (Fa 0.24288); 121.991 in test [4] (Fa 0.24359); 164.074 in [4] (Fa 0.28253); 178.068 in test [4] (Fa 0.29392); 269.444 in [4] (Fa 0.35541); 279.043 in [4] (Fa 0.36087). Further, the “Dose FAC (FAC alone for this Fa)” value was found to be 645.092 in test [4] (Fa 0.49929); 1272.12 in [4] (Fa 0.61254); 1824.65 in test [4] (Fa 0.66880); 11126.4 in test [4] (Fa 0.87322); 2644.47 in [1] (Fa 0.88386); 6060.28 in [1] (Fa 0.95196). In addition, in test [5] (50 μM FAC, 48 hours), the “inhibition of VEGF-A-induced cell proliferation” value is listed as “complete inhibition”. The “inhibition of VEGF-A-induced endothelial cell proliferation” value in test [5] (200 μM FAC, 24 hours) was “completely inhibited”. Moreover, in test [6], the “colony formation (clonogenic growth)” value is given as “completely inhibited”. The “endothelial cell migration (electrical impedance, real time)” value in the test with HUVECs is listed as “inhibits”. Besides, in test [2], the IC50 amounted to 200 µM. Further, the total vessel length result in test [7] (setting [8]) was “inhibited”. Also, in [7] (setting [8]), the vessel branches entry is on record as “inhibited”. The “CD31 positive vessel density” value in test [7] (systemic injection of FAC, compared to mice receiving saline) is “significantly reduced”. For the same compound, the “inhibition of lymphoma cell growth” value with Burkitt's lymphoma cells is “effective”. For the same compound, the “potency relative to ferric citrate at inhibiting lymphoma cell growth” value with Burkitt's lymphoma cells is given as “more potent than ferric citrate (FC)”.
Take ferric citrate [FC]: the “inhibition of lymphoma cell growth” value with Burkitt's lymphoma cells is “effective”.
